The text below walks through data of patent US5739351A, “Perhydroisoindole derivatives as substance P antagonists” (Rhone-Poulenc Rorer S.A., priority 1994, dated 1998).

In general, ED50 refers to the dose that gives a 50% effect, or the effect in half of the subjects. The low end stands for greater potency, the high end for weaker potency.

For one test, the system named is increase in capillary permeability brought about by septide (a substance P agonist). The test can be described thus: inhibition of the increase in capillary permeability brought about by septide. Format: in vivo. Particulars: Cavia porcellus, po; guinea pig, capillary permeability increase induced by septide. The text has this:
The study of certain isoindole derivatives of general formula (I) in the technique of A. Saria et al., Arch.
For the compound `COc1ccccc1[C@H](C)C(=O)N1C[C@@H]2C[C@@H](CC#N)C[C@@](O)(c3ccccc3OC)[C@@H]2C1` [Example 1, (3aS,4S,6S,7aR)-6-Cyanomethyl-4-(2-methoxyphenyl)-2-[(S)-2-(2-methoxylphenyl)propionyl]perhydroisoindol-4-ol], the ED50 was 0.004 mg/kg.
With `COc1ccccc1CC(=O)N1C[C@@H]2C[C@@H](CNC#N)C[C@@](O)(c3ccccc3OC)[C@@H]2C1` (relative stereo) [Example 18, (3aRS,4RS,6SR,7aSR)-6-Cyanoaminomethyl-4-(2-methoxyphenyl)-2-[(2-methoxyphenyl)acetyl]perhydroisoindolol], it took a dose of 1 mg/kg to reach the 50% effect level (ED50).
In the case of `COc1ccccc1[C@H](C)C(=O)N1C[C@@H]2C[C@@H](CC#N)C[C@@](O)(c3ccccc3F)[C@@H]2C1` [Example 13, (3aS,4S,6S,7aR)-6-Cyanomethyl-4-(2-fluorophenyl)-2-[(S)-2-(2-methoxyphenyl)propionyl]perhydroisoindol-4-ol], the 50% effect level (ED50) was put at a dose of 0.02 mg/kg.
On the same count and under the same terms, in the case of `N#CC[C@@H]1C[C@@H]2CN(C(=O)Cc3ccccc3O)C[C@@H]2[C@@](O)(c2ccccc2F)C1` (racemic) [Example 14, (3aRS,4RS,6SR,7aSR)-6-Cyanomethyl-4-(2-fluorophenyl)-2-(2-hydroxyphenylacetyl)perhydroisoindol-4-ol] it was 0.2 to 0.4 mg/kg; in that of `COc1ccccc1C(N)C(=O)N1C[C@@H]2C[C@@H](CC#N)C[C@@](O)(c3ccccc3OC)[C@@H]2C1` (stereo partly drawn) [Example 10], 0.05 mg/kg.
With `COc1ccccc1[C@]1(O)C[C@H](CC#N)C[C@H]2CN(C(=O)[C@@H](C)c3ccccc3O)C[C@H]21` [Example 4, (3aS,4S,6S,7aR)-6-Cyanomethyl-2-[(S)-2-(2-hydroxyphenyl)propionyl]-4-(2-methoxyphenyl)perhydroisoindol-4-ol], the ED50 is 0.004 mg/kg.
`COc1ccccc1[C@]1(O)C[C@H](CC#N)C[C@H]2CN(C(=O)Cc3ccc(Cl)c(Cl)c3)C[C@H]21` [Example 7, (3aS,4S,6S,7aR)-6-Cyanomethyl-2-[(3,4-dichlorophenyl)acetyl]-4-(2-methoxyphenyl)perhydroisoindol-4-ol] displayed an ED50 of 0.36 mg/kg.
For `COc1ccccc1CC(=O)N1C[C@@H]2C[C@@H](CC#N)C[C@@](O)(c3ccccc3OC)[C@@H]2C1` [Example 5, (3aS, 4S, 6S, 7aR)-6-Cyanomethyl-4-(2-methoxyphenyl)-2-[(2-methoxyphenyl)acetyl]perhydroisoindol-4-ol], it took a dose of 0.32 mg/kg to reach the 50% effect level (ED50).
Take `COc1ccccc1[C@@]1(O)C[C@@H](CC#N)C[C@@H]2CN(C(=O)Cc3ccccc3N3CCCC3)C[C@@H]21` (racemic) [Example 2, (3aRS,4RS,6RS,7aSR)-6-Cyanomethyl-4-(2-methoxyphenyl)-2-{[2-(1-pyrrolidinyl)phenyl]acetyl} perhydroisoindol-4-ol]: the ED50 was 1 mg/kg.

The next test deals with formaldehyde pain. The test is described as follows: formaldehyde pain test in guinea pigs. The settings on record: Cavia porcellus, po, guinea pig. The format is in vivo. The method, then: Moreover, certain products according to the invention were studied in the formaldehyde pain test in guinea pigs. The ED50 of the product is determined in this way.
Regarding `COc1ccccc1[C@H](C)C(=O)N1C[C@@H]2C[C@@H](CC#N)C[C@@](O)(c3ccccc3OC)[C@@H]2C1` [Example 1, (3aS,4S,6S,7aR)-6-Cyanomethyl-4-(2-methoxyphenyl)-2-[(S)-2-(2-methoxylphenyl)propionyl]perhydroisoindol-4-ol], it took a dose of 1 mg/kg to reach the 50% effect level (ED50).
On the same count and under the same terms, next, `COc1ccccc1[C@]1(O)C[C@H](CC#N)C[C@H]2CN(C(=O)[C@@H](N)c3ccccc3)C[C@H]21` [Example 9, (3aS,4S,6S,7aR)-2-[(S)-2-Amino-2-phenylacetyl]-6-cyanomethyl-4-(2-methoxyphenyl)perhydroisoindol-4-ol]: 3 to 30 mg/kg.
`COc1ccccc1CC(=O)N1C[C@@H]2C[C@@H](CC#N)C[C@@](O)(c3ccccc3OC)[C@@H]2C1` [Example 5, (3aS, 4S, 6S, 7aR)-6-Cyanomethyl-4-(2-methoxyphenyl)-2-[(2-methoxyphenyl)acetyl]perhydroisoindol-4-ol]: the 50% effective dose (ED50) was in the range of 3 to 30 mg/kg.
